Values quoted from earlier work in patent US20070294068A1, “LINE-WALKING RECURSIVE PARTITIONING METHOD FOR EVALUATING MOLECULAR INTERACTIONS AND QUESTIONS RELATING TO TEST OBJECTS” (priority 2006, published 2007).

Tested on: 2C9
Settings: literature reports

Row | Structure (SMILES) | reported inhibition of 2C9
1 | CCc1ccc(CCOc2ccc(CC3SC(=O)NC3=O)cc2)nc1 (centres unmarked) [pioglitazone] | weak inhibitor of the *2 allylic variant not the native enzyme
2 | Nc1ccc(S(=O)(=O)Nc2ncccn2)cc1 [sulfadiazine] | only a weak inhibitor
